The source made the active and inactive calls.
Key:
[1] = target: T1, DNA repair protein RAD52 homolog (Homo sapiens, UniProt P43351); format: functional, biochemical
T1 sequence (P43351 whole entry): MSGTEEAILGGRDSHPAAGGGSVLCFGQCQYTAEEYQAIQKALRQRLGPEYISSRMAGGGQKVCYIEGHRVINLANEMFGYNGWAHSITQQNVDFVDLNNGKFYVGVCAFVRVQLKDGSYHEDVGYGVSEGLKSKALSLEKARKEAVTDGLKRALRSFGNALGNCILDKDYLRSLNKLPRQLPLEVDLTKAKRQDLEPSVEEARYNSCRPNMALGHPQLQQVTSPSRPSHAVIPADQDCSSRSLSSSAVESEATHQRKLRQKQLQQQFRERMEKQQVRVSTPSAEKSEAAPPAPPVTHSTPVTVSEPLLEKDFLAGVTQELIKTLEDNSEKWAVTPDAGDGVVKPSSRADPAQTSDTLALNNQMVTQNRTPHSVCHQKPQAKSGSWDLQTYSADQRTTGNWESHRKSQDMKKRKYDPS

[2] = target: T2, High affinity choline transporter 1 (Homo sapiens, UniProt Q9GZV3); test: human choline transporter blockers, potency – cell-based, 5-point CRC, membrane potential dye, dose response (AID 504840); format: functional
T2 sequence (Q9GZV3 whole entry): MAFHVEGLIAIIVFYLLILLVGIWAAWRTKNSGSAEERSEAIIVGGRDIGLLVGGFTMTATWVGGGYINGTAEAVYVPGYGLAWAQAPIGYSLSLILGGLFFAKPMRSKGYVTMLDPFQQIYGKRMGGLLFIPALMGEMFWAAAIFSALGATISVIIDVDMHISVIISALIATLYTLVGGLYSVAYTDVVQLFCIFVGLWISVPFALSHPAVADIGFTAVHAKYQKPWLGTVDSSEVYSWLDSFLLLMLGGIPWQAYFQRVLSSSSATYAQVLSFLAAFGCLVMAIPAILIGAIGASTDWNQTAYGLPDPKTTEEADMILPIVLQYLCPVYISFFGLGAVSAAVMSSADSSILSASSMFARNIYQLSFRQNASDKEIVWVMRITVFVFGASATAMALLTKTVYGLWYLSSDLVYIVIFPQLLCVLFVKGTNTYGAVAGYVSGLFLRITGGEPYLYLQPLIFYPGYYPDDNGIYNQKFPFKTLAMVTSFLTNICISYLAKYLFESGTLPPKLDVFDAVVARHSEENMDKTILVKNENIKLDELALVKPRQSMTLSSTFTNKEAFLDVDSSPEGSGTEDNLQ

cells [3] = format: functional, cell-based
[4] = target: T3, Trace amine-associated receptor 1 (Homo sapiens, UniProt Q96RJ0); test: Fluorescence-based cell-based high throughput dose response assay to identify agonists of the human trace amine associated receptor 1 (TAAR1).; format: functional
T3 sequence (Q96RJ0 whole entry): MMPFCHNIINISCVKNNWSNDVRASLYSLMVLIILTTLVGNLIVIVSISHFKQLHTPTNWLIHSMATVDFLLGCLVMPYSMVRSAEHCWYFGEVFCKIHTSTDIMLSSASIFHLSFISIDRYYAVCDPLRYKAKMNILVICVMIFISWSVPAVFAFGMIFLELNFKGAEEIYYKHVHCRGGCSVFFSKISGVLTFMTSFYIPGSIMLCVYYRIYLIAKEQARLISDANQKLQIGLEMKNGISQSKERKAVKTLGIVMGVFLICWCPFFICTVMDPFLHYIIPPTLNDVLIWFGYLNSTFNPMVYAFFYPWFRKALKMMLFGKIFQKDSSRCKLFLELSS

[5] = target: T3, Trace amine-associated receptor 1; test: Counterscreen for agonists of the human trace amine associated receptor 1 (hTAAR1): Fluorescence-based cell-based high throughput dose response assay to identify hTAAR1 agonist that also desensitize TAAR1 receptor response.; format: functional
cells [6] = format: functional, cell-based; remark: listed apart in the source
[7] = reduced cellular PGC1a acetyl-lysine signal – cell-based, cherry-picked samples, dose response (AID 720514); format: functional;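 further: potency may reflect raised or lowered acetylation signal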
Caspase-6 = target: T4, Caspase-6 (Homo sapiens, UniProt P55212); test: inhibition of CASP6 peptide cleavage – biochemical, VEID-R110 fluorescence, cherry-pick, dose response (AID 720632)
T4 sequence (P55212 whole entry): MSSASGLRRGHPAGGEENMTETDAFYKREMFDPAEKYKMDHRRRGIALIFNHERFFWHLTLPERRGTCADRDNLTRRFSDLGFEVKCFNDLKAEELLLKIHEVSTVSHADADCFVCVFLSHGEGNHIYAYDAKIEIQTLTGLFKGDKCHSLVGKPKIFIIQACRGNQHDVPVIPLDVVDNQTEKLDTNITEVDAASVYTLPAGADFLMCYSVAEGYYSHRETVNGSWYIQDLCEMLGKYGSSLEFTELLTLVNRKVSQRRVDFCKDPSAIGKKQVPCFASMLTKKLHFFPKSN

[8] = target: T5, Probable nicotinate-nucleotide adenylyltransferase (Staphylococcus aureus (strain N315), UniProt P65502); format: functional, Staphylococcus aureus subsp. aureus N315;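 on IC50 Mean: confirmatory dose-response retesting of NadD inhibitor hits first found in an ultra-high-throughput screen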
[9] = target: T5, Probable nicotinate-nucleotide adenylyltransferase; format: functional, Staphylococcus aureus subsp. aureus N315; conditions: read-out: IC50_Mean
[10] = Luminescence-based cell-based high throughput dose response assay to identify activators of the DAF-12 from the parasite S. stercoralis (ssDAF-12).; format: functional
[11] = target: T6, Oxysterols receptor LXR-beta (Homo sapiens, UniProt P55055); test: LXR agonists, Gal4 luciferase reporter, dose response, counter-screen for ssDAF-12 agonist project, cell-based, luminescence, HEK293, S. stercoralis campaign (AID 720737); format: functional; conditions: read-out: IC50 (the source's name)
T6 sequence (P55055 whole entry): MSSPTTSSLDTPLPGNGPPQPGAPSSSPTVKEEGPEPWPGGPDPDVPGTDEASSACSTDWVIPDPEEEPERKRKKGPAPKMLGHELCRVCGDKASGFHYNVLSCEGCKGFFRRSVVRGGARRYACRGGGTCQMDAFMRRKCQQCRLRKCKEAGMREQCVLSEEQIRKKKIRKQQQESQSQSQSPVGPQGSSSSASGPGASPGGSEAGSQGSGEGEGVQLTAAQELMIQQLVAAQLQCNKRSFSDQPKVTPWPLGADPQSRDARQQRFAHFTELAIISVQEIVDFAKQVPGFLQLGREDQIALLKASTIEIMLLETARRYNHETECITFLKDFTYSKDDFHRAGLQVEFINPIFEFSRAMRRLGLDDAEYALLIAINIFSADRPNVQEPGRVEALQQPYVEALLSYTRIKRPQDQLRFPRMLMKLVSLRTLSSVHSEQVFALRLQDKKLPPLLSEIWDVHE

[12] = NIH-3T3 fibroblast cytotoxicity, dose response, cytotoxicity control, cell-based, fluorescence, Alamar Blue, secondary assay (AID 2327); format: functional;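 further: NIH-3T3 mouse fibroblasts cultured with fluconazole at 8 µg/mL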
[13] = tested on: Streptococcus sp. 'group A'; test: Streptococcus pyogenes SK(-)GAS viability under kanamycin – luminescence, BacTiterGlo, confirmation, counter-screen for streptokinase expression inhibitor project, dose response (AID 1900); format: functional, organism-based
Streptokinase A = target: T7, Streptokinase A (Streptococcus pyogenes serotype M1, UniProt P10520); test: viability-normalized secreted streptokinase activity reduction – plasminogen activation absorbance, OD405, dose response (AID 1914); format: functional, Streptococcus pyogenes M1 GAS;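 further: secreted streptokinase activity via plasminogen activation per viability signal from cell pellet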
T7 sequence (P10520 whole entry): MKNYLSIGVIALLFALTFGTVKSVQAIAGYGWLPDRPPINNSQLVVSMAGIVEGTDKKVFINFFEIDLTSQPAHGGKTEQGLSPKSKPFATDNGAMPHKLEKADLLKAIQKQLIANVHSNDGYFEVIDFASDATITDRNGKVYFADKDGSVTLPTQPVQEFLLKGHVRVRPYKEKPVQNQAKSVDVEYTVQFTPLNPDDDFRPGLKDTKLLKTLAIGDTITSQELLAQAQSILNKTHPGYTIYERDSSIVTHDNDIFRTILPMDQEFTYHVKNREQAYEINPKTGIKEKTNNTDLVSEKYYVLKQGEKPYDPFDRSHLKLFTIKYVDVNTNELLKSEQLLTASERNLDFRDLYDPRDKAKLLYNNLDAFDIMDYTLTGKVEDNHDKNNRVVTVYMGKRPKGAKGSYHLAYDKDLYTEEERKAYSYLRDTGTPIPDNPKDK

[14] = fluconazole-exposed Candida albicans growth modulators – fluorescence, retest, confirmation (AID 2467); format: functional, cell-based
[15] = Trypanosoma cruzi growth suppression in host cells – NIH3T3 host cells, beta-gal luminescence, confirmation (AID 2044); format: functional, cell-based;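 further: intracellular parasites grown in NIH/3T3 mouse fibroblasts as host cells; luminescent beta-galactosidase reporter signal from transgenic T. cruzi replicating inside host cells; inhibitors lower the luminescence signal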
[16] = microbe, parasite or virus in culture; format: functional; conditions: Mycobacterium tuberculosis
[17] = NIH3T3 cell viability loss – ATP luminescence, mouse fibroblasts, counter-screen, dose response (AID 2010); format: functional, cell-based;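 further: cells exposed to compound for about 90 hours before reading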
Streptococcus = test: GAS UMAA2166 growth inhibition – luminescence, BacTiterGlo, counter-screen for streptokinase expression inhibitor project, dose response (AID 1915); format: functional, organism-based;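 further: potency for reduction of bacterial viability or growth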
Paired box protein Pax-8 = Paired box protein Pax-8 (Homo sapiens, UniProt Q06710); test: PAX8 transcriptional activity inhibition in RMG-I – RMG-I cells, luciferase, cherry-pick, dose response (AID 687027); format: functional, cell-based;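 further: luciferase reporter driven by Pax8 target thyroperoxidase promoter measured by SteadyGlo luminescence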
[18] = general cell-killing toxicity readout – plate reader, dry powder samples, cytotoxicity control for PAX8 inhibitor project, dose response (AID 743021); format: functional, cell-based
[19] = OVCAR8 cell viability loss – plate reader, dry powder samples, PAX8 project, dose response (AID 743197); format: functional, cell-based; conditions: OVCAR-8
[20] = OVCAR-3 cell viability loss – plate reader, dry powder samples, PAX8 inhibitor project, dose response (AID 743044); format: functional, cell-based
[21] = IGROV1 cell killing – plate reader, dry powder samples, PAX8 inhibitor project, dose response (AID 743043); format: functional, cell-based; conditions: IGROV-1

T5 sequence (P65502 whole entry): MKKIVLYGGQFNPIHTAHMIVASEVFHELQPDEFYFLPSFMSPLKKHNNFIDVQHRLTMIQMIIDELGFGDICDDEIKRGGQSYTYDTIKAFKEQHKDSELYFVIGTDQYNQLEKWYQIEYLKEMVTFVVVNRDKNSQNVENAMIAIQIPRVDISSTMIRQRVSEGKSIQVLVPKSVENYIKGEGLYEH
Sequence of Paired box protein Pax-8 (Q06710 whole entry): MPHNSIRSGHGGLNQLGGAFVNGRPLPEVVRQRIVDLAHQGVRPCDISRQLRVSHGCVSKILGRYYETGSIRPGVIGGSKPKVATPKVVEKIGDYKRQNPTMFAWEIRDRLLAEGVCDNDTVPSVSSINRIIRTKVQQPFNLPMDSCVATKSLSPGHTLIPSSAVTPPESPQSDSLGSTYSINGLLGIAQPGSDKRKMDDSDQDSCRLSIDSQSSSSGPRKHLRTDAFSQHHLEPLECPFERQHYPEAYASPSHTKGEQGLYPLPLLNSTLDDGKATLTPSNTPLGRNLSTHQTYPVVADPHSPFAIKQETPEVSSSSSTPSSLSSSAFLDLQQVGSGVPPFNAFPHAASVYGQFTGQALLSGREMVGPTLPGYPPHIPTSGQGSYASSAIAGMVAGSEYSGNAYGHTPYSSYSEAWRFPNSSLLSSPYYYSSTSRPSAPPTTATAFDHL

Cc1cccc2sc(N(CCCN(C)C)C(=O)c3ccc(Cl)s3)nc12
AC50 [1]: 24.9 µM (active)

CCN1CCN(c2cc(C)c3cc(NC(=S)N4CCOCC4)ccc3n2)CC1
IC50 [2]: 12.6 µM (active) | AC50 [1]: 22 µM (active)

O=C(CC1Nc2ccccc2NC1=O)NCCc1ccccc1 (stereo not given)
IC50 (cells [3]): > 29.9 µM (inactive) | EC50 [4]: 2.27 µM (active) | IC50 [5]: 7.18 µM (active) | EC50 (cells [6]): > 29.9 µM (inactive)

CCCCOc1ccc(/C=C/C(=O)OCC(=O)c2c(N)n(C)c(=O)n(C)c2=O)cc1OCC
AC50 [7]: 12.6 µM (active)

O=C(O)/C=C/C(=O)NCCc1cccc(Cl)c1
IC50 (cells [3]): > 29.9 µM (inactive) | EC50 [4]: 0.7 µM (active) | IC50 [5]: 3.77 µM (active) | EC50 (cells [6]): > 29.9 µM (inactive)

COc1ccc(-c2nn(-c3ccccc3)cc2C(=O)Nc2cccc(C(=O)O)c2)cc1[N+](=O)[O-]
AC50 (Caspase-6): 5.45 µM (active)

Cc1ccc(Cn2nnc3c(O)nc(C4CCN(S(=O)(=O)c5ccc(S(=O)(=O)NC6CC6)cc5)CC4)nc32)cc1
IC50 [8]: 23.7 µM (active) | IC50 [9]: 54.4 µM (active)

COc1ccc(-c2nc3ccccc3c(=O)o2)cc1OC
AC50 [7]: 28.1 µM (active)

CC(C)c1ccc(-c2nnn(CC(=O)N3CCCCC3)n2)cc1
AC50 [7]: 24.3 µM (active)

O=C(NCC1CCCO1)c1ccc(NC(=O)c2ccc(Br)cc2)cc1 (stereo not given)
IC50 (cells [3]): > 29.9 µM (inactive) | EC50 [4]: 1.45 µM (active) | IC50 [5]: > 29.9 µM (inactive) | EC50 (cells [6]): > 29.9 µM (inactive)

COC(=O)[C@]1(C)N[C@H](CN(C)C(C)=O)[C@@H]2C(=O)N(Cc3ccccc3)C(=O)[C@@H]21
IC50 [10]: > 67.5 µM (inactive) | EC50 [11]: > 67.5 µM (inactive)

Cc1ccc(S(=O)(=O)Nc2ccc(Nc3nccn4c(-c5ccccc5Oc5ccccc5)cnc34)cc2)cc1
IC50 [8]: 10.4 µM (active) | IC50 [9]: 20.1 µM (active)

O=C(N/N=C\C=C\c1ccc([N+](=O)[O-])o1)c1cccs1
EC50 [12]: > 160 µM (inconclusive) | EC50 [13]: 3.56 µM (active) | EC50 (Streptokinase A): > 150 µM (not active) | EC50 [14]: 0.068 µM (active) | EC50 [15]: 0.243 µM (active) | CC50 [16]: 30.6 µM (active) | EC50 [17]: 5.29 µM (active) | EC50 (Streptococcus): 6.16 µM (active) | AC50 (Caspase-6): 7.38 µM (active)

O=C(O)c1ccccc1NS(=O)(=O)c1ccc(N/N=C/c2cccc(O)c2O)c([N+](=O)[O-])c1
AC50 (Caspase-6): 6.45 µM (active)

COc1ccc(CC2=NCCc3cc(OC)c(OC)cc32)cc1OC
AC50 [1]: 15.2 µM (active)

C[C@H](CO)N1C[C@H](C)[C@@H](CN(C)C(=O)Cc2ccccc2)OCCCC[C@H](C)Oc2ccc(NC(=O)Nc3ccc(C(F)(F)F)cc3)cc2C1=O
AC50 (Paired box protein Pax-8): 4.34 µM (active) | AC50 [18]: 48.5 µM (active) | AC50 [19]: > 70 µM (inactive)

C[C@H]1CCCCO[C@H](CN(C)C(=O)Nc2ccc(C(F)(F)F)cc2)[C@@H](C)CN([C@@H](C)CO)C(=O)c2cc(NC(=O)Nc3ccccc3)ccc2O1
AC50 (Paired box protein Pax-8): 3.02 µM (active) | AC50 [20]: 22.1 µM (active) | AC50 [21]: 59.3 µM (active) | AC50 [19]: > 70 µM (inactive)

Cc1ccc(-n2nc(C)c(/C=N/c3ccc(S(=O)(=O)Nc4nccs4)cc3)c2O)cc1C
IC50 [8]: 4.08 µM (active) | IC50 [9]: 17.4 µM (active)

Reference: ChEMBL document CHEMBL1201862, “PubChem BioAssay data set” (2004)
